PubChem BioAssay (NCI)
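GI50 = concentration required for 50% inhibition of growth. At the TGI there is no net growth.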

Key:
Assay in all cases: NCI tumour cell line growth inhibition, 384-well format
NCI-H322M lung = system: NCI-H322M lung
NCI-H460 NSCLC = system: NCI-H460 NSCLC
NCI-H522 lung = system: NCI-H522 lung
NCI/ADR-RES ovarian = system: NCI/ADR-RES ovarian
OVCAR-3 ovarian = system: OVCAR-3 ovarian
OVCAR-4 ovarian = system: OVCAR-4 ovarian
OVCAR-5 ovarian = system: OVCAR-5 ovarian
OVCAR-8 ovarian = system: OVCAR-8 ovarian
PC-3 prostate = system: PC-3 prostate
RPMI-8226 leukemia = system: RPMI-8226 leukemia
RXF 393 renal = system: RXF 393 renal
SF-268 CNS = system: SF-268 CNS
SF-295 CNS = system: SF-295 CNS
SF-539 CNS = system: SF-539 CNS
SK-MEL-2 melanoma = system: SK-MEL-2 melanoma
SK-MEL-28 melanoma = system: SK-MEL-28 melanoma
SK-MEL-5 melanoma = system: SK-MEL-5 melanoma
SK-OV-3 ovarian = system: SK-OV-3 ovarian
SN12C renal = system: SN12C renal
SNB-19 CNS = system: SNB-19 CNS
SNB-75 CNS = system: SNB-75 CNS
SR leukemia = system: SR leukemia
SW-620 colon = system: SW-620 colon
T-47D breast = system: T-47D breast
TK-10 renal = system: TK-10 renal
U251 glioblastoma = system: U251 glioblastoma
UACC-257 melanoma = system: UACC-257 melanoma
UACC-62 melanoma = system: UACC-62 melanoma
UO-31 renal = system: UO-31 renal

## COc1cc2ncnc3c2cc1OCCCCCN(C)Cc1ccc(Br)cc1N3
NCI-H322M lung
  GI50: 0.191 µM
  TGI: 1.46 µM
NCI-H460 NSCLC
  GI50: 3.37 µM
  TGI: > 100 µM
NCI-H522 lung
  GI50: 0.287 µM
  TGI: 2.97 µM
NCI/ADR-RES ovarian
  GI50: 3.03 µM
  TGI: > 100 µM
OVCAR-3 ovarian
  GI50: 1.07 µM
  TGI: > 100 µM
OVCAR-4 ovarian
  GI50: 2.39 µM
  TGI: > 100 µM
OVCAR-5 ovarian
  GI50: 3.95 µM
  TGI: > 100 µM
OVCAR-8 ovarian
  GI50: 3.02 µM
  TGI: > 100 µM
PC-3 prostate
  GI50: 4.02 µM
  TGI: > 100 µM
RPMI-8226 leukemia
  GI50: 2.58 µM
  TGI: > 20.6 µM
RXF 393 renal
  GI50: 3.22 µM
  TGI: > 100 µM
SF-268 CNS
  GI50: > 100 µM
  TGI: > 100 µM
SF-295 CNS
  GI50: 7.08 µM
  TGI: > 100 µM
SF-539 CNS
  GI50: > 100 µM
  TGI: > 100 µM
SK-MEL-2 melanoma
  GI50: 2.22 µM
  TGI: > 22 µM
SK-MEL-28 melanoma
  GI50: > 27.3 µM
  TGI: > 100 µM
SK-MEL-5 melanoma
  GI50: 3.32 µM
  TGI: > 100 µM
SK-OV-3 ovarian
  GI50: 0.643 µM
  TGI: 5.34 µM
SN12C renal
  GI50: 1.1 µM
  TGI: > 100 µM
SNB-19 CNS
  GI50: > 100 µM
  TGI: > 100 µM
SNB-75 CNS
  GI50: 4.58 µM
  TGI: > 100 µM
SR leukemia
  GI50: 1.72 µM
  TGI: 5.17 µM
SW-620 colon
  GI50: 6.27 µM
  TGI: > 100 µM
T-47D breast
  GI50: 0.798 µM
  TGI: > 20.7 µM
TK-10 renal
  GI50: 0.352 µM
  TGI: > 100 µM
U251 glioblastoma
  GI50: 5.7 µM
  TGI: > 100 µM
UACC-257 melanoma
  GI50: > 100 µM
  TGI: > 100 µM
UACC-62 melanoma
  GI50: 2.16 µM
  TGI: > 100 µM
UO-31 renal
  GI50: 1.45 µM
  TGI: > 100 µM
